Test results as given in publication PMC4575030 (PLoS ONE, 2015).
Counter-ions that a name gives are not always drawn. Like-named read-outs stand apart in the source and are kept apart here.

Experiments:
rat Nav1.7 = rat Nav1.7 (Rattus norvegicus, UniProt O08562); experiment: PatchXpress automated electrophysiology on rat Nav1.7; assay type: cell-based; settings: 20%-inactivated rat Nav1.7
[1] = Terminal plasma and brain concentrations after behavioral testing; assay type: in vivo, rat; settings: for Kp: brain and plasma, rat, ratio of concentrations measured following the formalin test; for Effective [plasma]: mean terminal plasma concentration at the lowest effective dose in the rat formalin test
naïve rats = experiment: Open field activity (basic movement); assay type: in vivo, rat; settings: formalin-naïve rats
Description: Basic movement was measured using the Photobeam Activity System Open Field (San Diego Instruments, San Diego, CA) equipped with 48 infrared photocell emitters and detectors. Photobeams used to measure vertical movement were positioned 14 cm above the test chamber floor. Each testing chamber was made of Plexiglas (41 x 41 x 36 cm) and was devoid of any bedding. At the beginning of the test session, each animal was placed in a separate testing chamber and the room lights were turned off. Basic movement was measured for 30 minutes.

hNav1.7 = target: T1, hNav1.7 (Homo sapiens, UniProt Q15858); experiment: Manual whole cell patch clamp electrophysiology on HEK 293 cells stably expressing hNav1.7; assay type: cell-based
T1 construct: expressed in transfected cells; host or cells: HEK 293
Description: Except as indicated, recordings to determine potency of aminotriazines on Nav1.7 were made with manual electrophysiology. HEK 293 cells stably expressing hNav1.7 were voltage-clamped using the whole cell patch clamp configuration. Cells were plated onto 35 mm culture dishes 0–24 hours before recording, and tissue culture medium was exchanged for external solution containing (in mM) 140 NaCl, 5 KCl, 2 CaCl2, 1 MgCl2, 10 HEPES, 11 glucose, pH 7.4 with NaOH. Patch pipettes were pulled from borosilicate glass capillaries (1.2 mm outer diameter, World Precision Instruments, Sarasota, FL) with a P-97 pipette puller (Sutter Instruments, Novato, CA) and backfilled with internal solution containing (in mM) 62.5 CsCl, 75 CsF, 2.5 MgCl2, 5 EGTA, 10 HEPES, pH 7.25 with CsOH. Pipette resistances were between 1.5 and 2.0 MΩ. After formation of the whole-cell configuration, cells were lifted off the dish bottom with the patch pipette and positioned directly in front of a microarray of glass tubes (each tube internal diameter ~ 1 mm) with each tube containing continuously flowing control or test solution. A full current-voltage relation was recorded from each cell, and cells with poor space clamp as indicated by discontinuous I-V relation or by prolonged or nonexponential current kinetics were discarded. Solution switching was accomplished by moving the microarray with computer control via an RSC-160 rapid solution exchanger (Bio-Logic, Claix, France). Currents were recorded with an Axopatch 200B patch-clamp amplifier driven by pCLAMP software, filtered (4-pole Bessel) at 5 kHz during acquisition, and digitized at 20 kHz using pClamp9.2. Whole cell capacitance and series resistance were compensated at 0%- 80%, and reported voltages were uncorrected for liquid junction potentials. Recordings were made at room temperature. Concentration-response curves were taken by measuring inward Nav1.7 current every five to six seconds with a 10 ms to 20 ms depolarization to near the peak of the current-voltage relation, before and after steady-state inhibition by a given concentration of aminotriazine. For concentration response curves on partially inactivated channels, holding voltage was set to produce 20% fractional inactivation. […] Occasionally two compound concentrations were tested in parallel without resetting the voltage, if inhibition was rapid and the current level steady. […] Concentration response curves on non-inactivated channels generally were taken with multiple concentrations added in series without washoff of the previous concentration.

[2] = In vitro plasma protein binding; assay type: in vitro ADME
[3] = system: rat formalin model of pain; experiment: Formalin test (formalin-induced flinching); assay type: in vivo; settings: for Decrease in formalin flinching: phase 2 (10 to 40 min), percent of vehicle; for Analgesic efficacy: rat formalin model, significant (p < 0.05) decrease in flinching at a dose without a reduction in open field movement that obviated the result; for Reduction in formalin flinching, result in words: rat formalin test
Description: Formalin-induced flinching was measured using the Automated Nociception Analyzer (ANA) (University Anesthesia Research & Development Group, La Jolla, CA). Rats were habituated to the ANA testing chambers for at least 30 minutes prior to the formalin injection. At test time, each rat was removed from the testing chamber and gently wrapped in a towel. 50 μL of 2.5% formalin solution was injected into the dorsal surface of the left hind paw with a 30 gauge needle. A small metal band was then affixed to the plantar side of the injected paw with one drop of super glue. The animal was then unwrapped from the towel, placed back in the testing chamber, and flinching behavior was scored for 40 minutes by the ANA software. While minimized, non-painful paw movement from the natural activity of an alert animal could be erroneously binned by the automated recording system as a nociceptive behavior. These behaviors are not subtracted from the flinching total. […] Total flinching behavior was used as the endpoint of the assay.

[4] = system: rat spinal nerve ligation model; experiment: Tactile allodynia following spinal nerve ligation (SNL); assay type: in vivo; settings: gabapentin positive control, 75 min after dosing; statistically significant
Description: A decrease in tactile response threshold, using calibrated von Frey filaments (Stoelting Co., Wood Dale, IL), was used as a measure of tactile allodynia following spinal nerve ligation (SNL). Prior to surgery, each animal underwent baseline testing to determine suitability for the assay. Briefly, animals were placed on a raised platform with a grid meshed floor. The distance between the mesh was ¼”. Once acclimated, each animal received a series of trials according to the up-down method described by Dixon. Animals showing a response to less than 4 g were deemed already sensitive to the stimulus and were removed. A maximal fiber of 15 g was employed as a cut-off threshold. Surgery was then performed with a procedure slightly modified by that reported by Kim and Chung. Briefly, the left L5 spinal nerve was carefully isolated from the surrounding tissue. Using 5–0 silk suture, a tight ligature was placed around L5 nerve. Muscle and skin were then closed using 4–0 absorbable suture and wound clips. Animals were allowed to recover and were carefully monitored for seven days to ensure proper healing and ensure there was no mutilation of the affected limb. On day 21 post-surgery, animals were again tested to ensure the development of tactile allodynia. […] Animals were then randomized into groups and dosed with the test compound, gabapentin, or vehicle and assessed as stated above. […]

rat CFA model of pain = experiment: CFA-induced thermal hyperalgesia; assay type: in vivo; settings: morphine s.c., 30 min after dosing, positive control
Description: CFA-induced thermal hyperalgesia was measured using the Thermal Plantar Analgesia Instrument (Ugo Basile, Italy). Intensity of the radiant heat stimulus was adjusted to achieve a withdrawal latency of approximately 13 s in naïve animals. On test day one, animals were placed on the apparatus in their individual testing chambers with an absorbent towel at the bottom and allowed to habituate for at least 30 minutes. The towel was then removed and animals were allowed to acclimate for at least 15 minutes more. After habituation, animals were placed back in their home cages until the following day. On test day two, animals were placed back in the testing chambers until calm (typically 20 minutes). The thermal device was positioned on the center of the left hind paw and the test was started. The time for the animal to withdraw its paw from the thermal stimulus was recorded. A cut-off of 30 seconds was used to prevent tissue damage. Few trials went past 20 seconds and none past 25 seconds. This procedure was repeated for three trials per animal, each separated by at least 5 min, and trials were averaged to determine baseline withdrawal latencies. After determining baseline measures, each animal received an injection of 50 μl CFA (1:1 emulsion with PBS, Sigma, St. Louis, MO) into the plantar side of the left hind paw with a 26 gauge needle. Animals were then placed back in their home cages until the following day. Approximately 24 h after the CFA injection, withdrawal latencies to heat were determined as described above. Animals were then randomized based on their Post-CFA baseline score and treated with the test compound or vehicle. […] The experimenter was blinded to drug treatment during this assay. Percent return to baseline latency was used as the endpoint of the assay.

[5] = 10 mg/kg p.o., negative value = increase
[6] = IC50 (μM) 20%-inactivated, 20%-inactivated human Nav1.7, holding voltage set to produce 20% fractional inactivation
[7] = non-inactivated human Nav1.7, holding voltage -140 mV or occasionally -120 mV, peak concentration tested 10 μM, read-out: IC50 (μM) Non-inactivated

T1 sequence (Q15858 whole entry): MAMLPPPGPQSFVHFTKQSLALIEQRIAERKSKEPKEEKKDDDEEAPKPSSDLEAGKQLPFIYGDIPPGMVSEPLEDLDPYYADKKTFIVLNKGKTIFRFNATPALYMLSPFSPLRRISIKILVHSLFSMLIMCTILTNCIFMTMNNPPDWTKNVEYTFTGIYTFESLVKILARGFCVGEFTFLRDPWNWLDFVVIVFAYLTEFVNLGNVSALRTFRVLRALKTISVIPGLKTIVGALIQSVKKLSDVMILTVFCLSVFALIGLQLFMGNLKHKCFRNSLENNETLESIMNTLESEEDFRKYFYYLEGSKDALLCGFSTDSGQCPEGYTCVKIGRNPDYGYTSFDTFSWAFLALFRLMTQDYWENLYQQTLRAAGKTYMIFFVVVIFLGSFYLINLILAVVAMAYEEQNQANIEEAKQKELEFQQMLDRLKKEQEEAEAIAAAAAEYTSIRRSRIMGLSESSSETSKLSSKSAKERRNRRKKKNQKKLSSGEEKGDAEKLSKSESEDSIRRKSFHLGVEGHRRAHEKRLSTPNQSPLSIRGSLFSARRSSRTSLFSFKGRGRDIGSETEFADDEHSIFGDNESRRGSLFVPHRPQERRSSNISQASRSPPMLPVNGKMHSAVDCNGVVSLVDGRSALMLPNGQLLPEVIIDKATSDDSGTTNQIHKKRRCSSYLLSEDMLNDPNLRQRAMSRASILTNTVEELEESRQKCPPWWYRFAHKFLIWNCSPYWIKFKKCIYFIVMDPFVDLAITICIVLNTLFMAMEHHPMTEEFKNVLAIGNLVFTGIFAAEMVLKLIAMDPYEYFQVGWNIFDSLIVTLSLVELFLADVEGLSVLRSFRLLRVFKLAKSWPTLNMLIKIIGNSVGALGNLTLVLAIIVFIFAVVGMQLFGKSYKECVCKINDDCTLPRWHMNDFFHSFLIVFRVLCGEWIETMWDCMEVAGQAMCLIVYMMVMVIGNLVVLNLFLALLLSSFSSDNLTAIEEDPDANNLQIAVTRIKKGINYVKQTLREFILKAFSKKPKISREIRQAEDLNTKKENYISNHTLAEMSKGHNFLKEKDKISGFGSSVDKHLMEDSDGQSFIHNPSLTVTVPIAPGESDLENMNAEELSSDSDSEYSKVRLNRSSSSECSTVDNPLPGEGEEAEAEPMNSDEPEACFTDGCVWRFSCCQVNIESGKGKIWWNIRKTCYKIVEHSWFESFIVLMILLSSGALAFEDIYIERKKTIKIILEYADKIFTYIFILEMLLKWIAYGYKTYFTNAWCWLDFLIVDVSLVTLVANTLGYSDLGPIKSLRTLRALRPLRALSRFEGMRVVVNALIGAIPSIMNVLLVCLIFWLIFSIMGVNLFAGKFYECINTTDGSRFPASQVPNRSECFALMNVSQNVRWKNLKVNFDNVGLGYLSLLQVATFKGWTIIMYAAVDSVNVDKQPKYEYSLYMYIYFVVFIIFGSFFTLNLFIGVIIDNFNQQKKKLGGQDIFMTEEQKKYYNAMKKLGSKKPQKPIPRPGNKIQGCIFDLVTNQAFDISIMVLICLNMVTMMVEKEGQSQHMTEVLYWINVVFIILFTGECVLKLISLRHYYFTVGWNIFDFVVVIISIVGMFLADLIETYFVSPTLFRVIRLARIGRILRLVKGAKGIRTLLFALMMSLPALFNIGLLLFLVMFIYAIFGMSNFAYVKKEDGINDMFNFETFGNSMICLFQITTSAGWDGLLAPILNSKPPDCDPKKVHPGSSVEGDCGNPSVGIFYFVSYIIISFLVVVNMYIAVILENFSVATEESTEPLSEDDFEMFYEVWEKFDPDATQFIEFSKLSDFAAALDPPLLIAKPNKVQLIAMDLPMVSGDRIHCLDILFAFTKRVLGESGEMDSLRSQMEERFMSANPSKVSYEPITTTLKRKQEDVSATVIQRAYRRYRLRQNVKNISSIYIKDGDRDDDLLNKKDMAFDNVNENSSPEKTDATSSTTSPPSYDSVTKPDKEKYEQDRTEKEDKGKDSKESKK
Chain of rat Nav1.7 (O08562 whole entry): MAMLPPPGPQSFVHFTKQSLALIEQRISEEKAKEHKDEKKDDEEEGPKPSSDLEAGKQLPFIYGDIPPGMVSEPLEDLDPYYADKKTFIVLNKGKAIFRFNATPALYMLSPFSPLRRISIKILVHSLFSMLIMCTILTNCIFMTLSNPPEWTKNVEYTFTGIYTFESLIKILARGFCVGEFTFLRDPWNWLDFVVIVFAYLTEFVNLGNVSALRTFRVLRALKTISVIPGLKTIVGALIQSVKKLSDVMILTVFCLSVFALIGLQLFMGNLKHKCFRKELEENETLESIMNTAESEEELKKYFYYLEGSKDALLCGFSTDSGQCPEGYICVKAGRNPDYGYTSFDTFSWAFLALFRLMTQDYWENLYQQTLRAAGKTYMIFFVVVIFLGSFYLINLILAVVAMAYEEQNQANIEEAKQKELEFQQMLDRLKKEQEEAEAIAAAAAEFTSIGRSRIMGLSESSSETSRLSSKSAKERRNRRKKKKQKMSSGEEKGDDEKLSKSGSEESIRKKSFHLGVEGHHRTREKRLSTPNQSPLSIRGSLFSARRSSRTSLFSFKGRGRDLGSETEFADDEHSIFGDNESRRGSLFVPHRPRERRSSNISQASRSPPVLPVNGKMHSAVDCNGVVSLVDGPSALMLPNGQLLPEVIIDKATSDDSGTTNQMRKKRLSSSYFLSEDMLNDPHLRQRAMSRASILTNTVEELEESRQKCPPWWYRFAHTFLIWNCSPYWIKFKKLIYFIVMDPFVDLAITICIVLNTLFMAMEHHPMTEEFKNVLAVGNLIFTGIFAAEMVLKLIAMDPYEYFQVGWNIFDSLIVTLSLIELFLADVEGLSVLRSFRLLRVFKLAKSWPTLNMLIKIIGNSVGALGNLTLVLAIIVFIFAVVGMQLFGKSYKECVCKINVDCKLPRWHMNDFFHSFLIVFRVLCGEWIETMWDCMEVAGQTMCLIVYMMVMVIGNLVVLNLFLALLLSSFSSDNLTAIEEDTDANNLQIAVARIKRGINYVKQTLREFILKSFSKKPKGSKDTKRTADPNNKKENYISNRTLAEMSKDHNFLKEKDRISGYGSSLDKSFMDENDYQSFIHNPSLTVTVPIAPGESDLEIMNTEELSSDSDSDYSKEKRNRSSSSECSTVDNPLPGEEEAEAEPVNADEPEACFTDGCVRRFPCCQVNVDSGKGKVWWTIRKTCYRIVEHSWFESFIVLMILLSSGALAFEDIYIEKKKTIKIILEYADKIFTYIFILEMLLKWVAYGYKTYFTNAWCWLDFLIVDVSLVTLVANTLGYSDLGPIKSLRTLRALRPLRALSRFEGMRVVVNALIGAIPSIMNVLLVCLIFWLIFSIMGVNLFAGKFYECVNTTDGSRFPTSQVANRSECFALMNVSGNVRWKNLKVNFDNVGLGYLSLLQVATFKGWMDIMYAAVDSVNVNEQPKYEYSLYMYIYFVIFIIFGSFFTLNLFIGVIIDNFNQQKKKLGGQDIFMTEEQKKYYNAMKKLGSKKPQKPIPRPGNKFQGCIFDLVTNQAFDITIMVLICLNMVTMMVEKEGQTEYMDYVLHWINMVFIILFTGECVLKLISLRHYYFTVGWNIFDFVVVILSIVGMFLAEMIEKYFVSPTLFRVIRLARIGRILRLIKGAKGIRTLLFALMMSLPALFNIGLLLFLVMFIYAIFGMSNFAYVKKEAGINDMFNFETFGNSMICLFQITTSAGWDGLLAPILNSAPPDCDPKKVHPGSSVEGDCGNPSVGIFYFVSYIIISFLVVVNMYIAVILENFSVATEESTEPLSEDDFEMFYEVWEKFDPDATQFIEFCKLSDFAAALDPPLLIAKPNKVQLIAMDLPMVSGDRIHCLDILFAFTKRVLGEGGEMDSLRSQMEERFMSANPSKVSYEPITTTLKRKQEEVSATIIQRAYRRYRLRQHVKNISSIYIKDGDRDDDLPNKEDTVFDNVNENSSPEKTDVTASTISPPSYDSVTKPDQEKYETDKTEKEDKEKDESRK

Row | Structure (SMILES) | IC50 (rat Nav1.7) [nM] | Kp [1] | Effective [plasma] [1] [µM] | Decrease in basic movement (naïve rats; [5]) [%] | Decrease in basic movement (naïve rats; 30 mg/kg p.o.) [%] | Decrease in basic movement (naïve rats; 100 mg/kg p.o.) [%] | IC50 (hNav1.7; [6]) [µM] | IC50 (hNav1.7; [7]) [µM] | fraction unbound [2] | Decrease in formalin flinching ([3]; 10 mg/kg p.o.) [%] | Decrease in formalin flinching ([3]; 30 mg/kg p.o.) [%] | Decrease in formalin flinching ([3]; 100 mg/kg p.o.) [%] | Analgesic efficacy [3] | Reduction in formalin flinching, result in words [3] | Reversal of tactile allodynia compared to the vehicle group [4] [%] | Average reversal of thermal hyperalgesia compared to baseline (rat CFA model of pain) [%] | Total reduction in phase 2 flinching as percent of vehicle ([3]; morphine 2 mg/kg s.c., positive control) [%]
1 | CC(=O)Nc1cc(Nc2ncnc(N3CC=C(c4ccc(C#N)cc4)CC3)n2)ccc1F [Compound E, N-(5-((4-(4-(4-cyanophenyl)-3,6-dihydro-1(2H)-pyridinyl)-1,3,5-triazin-2-yl)amino)-2-fluorophenyl)acetamide] | 3500 | 0.49 | 6.14 | 2 | 29 | 29 | 0.09 | 2.1 | 0.009 | 18 | 62 | 83 | Yes | statistically significant and plasma concentration-dependent reduction in formalin flinching |  |  | 
2 | CC(=O)Nc1cccc(Nc2ncnc(N3CCc4cc(OC(F)(F)F)ccc4C3)n2)c1 [Compound F, N-(3-((4-(6-(trifluoromethoxy)-3,4-dihydro-2(1H)-isoquinolinyl)-1,3,5-triazin-2-yl)amino)phenyl)acetamide] | 1000 | 0.33 | 3.70 | 11 | 33 | 54 | 0.18 | > 10 | 0.001 | 0 | 35 | 67 | Yes | statistically significant and plasma concentration-dependent reduction in formalin flinching |  |  | 
3 | NCC1(CC(=O)O)CCCCC1 [gabapentin, reference compound] |  |  |  |  |  |  |  |  |  |  |  |  |  |  | 44 |  | 
4 | CN1CC[C@]23c4c5ccc(O)c4O[C@H]2[C@@H](O)C=C[C@H]3[C@H]1C5 [morphine, Morphine sulfate, reference compound] |  |  |  |  |  |  |  |  |  |  |  |  |  | statistically significant decrease in flinching compared to the vehicle group |  | 87 | 68
